{"source": "paper PMC10726357", "about": "“New Genetically Engineered Derivatives of Antibacterial Darobactins Underpin Their Potential for Antibiotic Development” (Journal of Medicinal Chemistry, 2023)", "key": {"[1]": {"tested_on": "P. aeruginosa 83979 (MDR clinical isolate)", "test": "microbe, parasite or virus in culture", "conditions": "83979 (MDR clinical isolate)", "experimental": "(§1) The antibacterial activity of novel darobactins was determined by the evaluation of the minimum inhibitory concentration (MIC) as previously described for crude extracts and for pure darobactin analogues.[12]"}, "[2]": {"tested_on": "P. aeruginosa 84389 (MDR clinical isolate)", "test": "microbe, parasite or virus in culture", "conditions": "84389 (MDR clinical isolate)", "experimental": "as §1"}, "K. pneumoniae DSM-30104": {"tested_on": "K. pneumoniae DSM-30104", "type": "cell-based, Klebsiella pneumoniae", "conditions": "DSM-30104", "experimental": "as §1"}, "[3]": {"conditions": "for liver microsomes Clint / liver microsomes t1/2: 1 μM; for liver microsomes t1/2: 120 min incubation", "experimental": "The metabolic stability of testosterone, verapamil, and ketoconazole was determined in parallel to confirm the enzymatic activity of mouse/rat liver microsomes; for human liver microsomes, testosterone, diclofenac, and propranolol were used. Incubation was stopped after defined time points by precipitation of aliquots of enzymes with 2 volumes of cold acetonitrile containing an internal standard (15 nM diphenhydramine). Samples were stored on ice until the end of the incubation, and precipitated protein was removed by centrifugation (15 min, 4 °C, and 4000g). The concentration of the remaining test compound at the different time points was analyzed by HPLC-MS/MS (TSQ Altis Plus, Thermo Fisher, Dreieich, Germany) and used to determine the half-life (t1/2)."}, "[4]": {"tested_on": "P. aeruginosa PA14 DSM 19882", "type": "cell-based, Pseudomonas aeruginosa", "experimental": "as §1"}, "P. aeruginosa PA01": {"tested_on": "P. aeruginosa PA01", "type": "cell-based, Pseudomonas aeruginosa", "experimental": "as §1"}, "[5]": {"molecular_target": "T1, EcBamA (E. coli BamA barrel domain) (Escherichia coli, UniProt P0A940, C690S/C700S)", "T1 construct": "The E. coli BamA barrel domain (BamA-β) (residues 421–810, C690S, C700S); made in house", "test": "Microscale thermophoresis (MST) KD determination", "type": "binding", "experimental": "As an alternative to the previously published methods using isothermal titration calorimetry (ITC), we established a KD determination assay using microscale thermophoresis (MST) to enable higher throughput.\nMicroscale thermophoresis (MST) (serial no. 201709-BR-N024, Monolith NT.115 Micro Scale Thermophoresis, NanoTemper Technologies GmbH) was performed according to the standard protocol from the manufacturer NanoTemper Technologies GmbH using a Monolith His-Tag Labeling Kit RED-tris-NTA second-generation kit. The buffer used was HEPES (50 mM), pH 7.6, MgCl2 (5 mM), and Tween (0.05%). […] A 1:1 dilution of the ligand over 16 samples was performed using a stock of ligand (in water) diluted in HEPES buffer. Nonhydrophobic capillary tubes were used. A pretest to check for the labeling and compound fluorescence was performed for every sample followed by a binding affinity (KD) determination. Each sample was measured after 15 min of incubation at RT and analyzed in MO Control version 1.6."}, "A. baumannii ATCC 17978": {"tested_on": "A. baumannii ATCC 17978", "type": "cell-based, Acinetobacter baumannii", "experimental": "as §1"}, "A. baumannii DSM-30008": {"tested_on": "A. baumannii DSM-30008", "type": "cell-based, Acinetobacter baumannii", "conditions": "DSM-30008", "experimental": "as §1"}, "A. baumannii NCTC 13301": {"tested_on": "A. baumannii NCTC 13301", "type": "cell-based, Acinetobacter baumannii", "experimental": "as §1"}, "[6]": {"tested_on": "Acinetobacter baumannii DSM-30007", "type": "cell-based", "experimental": "as §1"}, "E. coli ATCC25922": {"tested_on": "E. coli ATCC25922", "type": "cell-based, Escherichia coli", "conditions": "ATCC25922", "experimental": "as §1"}, "[7]": {"conditions": "rat (Wistar) plasma; 1 μM", "quoted_text": "(§2) To determine stability in plasma, the compound (1 μM) was incubated with pooled CD-1 mouse, Wistar rat, or human plasma (Neo Biotech, Nanterre, France). […] Samples were stored on ice until the end of the incubation, and precipitated protein was removed by centrifugation (15 min, 4 °C, 4000g, and 2 centrifugation steps). The concentration of the remaining test compound at the different time points was analyzed by HPLC-MS/MS (TSQ Quantum Access MAX, Thermo Fisher, Dreieich, Germany). The plasma stability of procaine, propantheline, and diltiazem was determined in parallel to confirm the enzymatic activity."}, "[8]": {"conditions": "human plasma; 1 μM", "quoted_text": "as §2"}}, "note": "Where two headings read alike, the source gives them in different places."}
{"smiles": "N=C(N)NCCC[C@H](NC(=O)[C@H]1NC(=O)[C@H](CO)NC(=O)[C@H]2NC(=O)[C@H](CCC(N)=O)NC(=O)[C@@H](N)Cc3c[nH]c4c(cccc34)O[C@@H]2c2c[nH]c3cc(ccc23)[C@@H]1CCCN)C(=O)N[C@@H](Cc1c[nH]c2ccccc12)C(=O)O", "note": "[D69, darobactin 69]", "values": [{"measurement": "MIC P. aeruginosa 83979", "setting": "[1]", "value": "8–16 μg mL^–1"}, {"measurement": "MIC P. aeruginosa 84389", "setting": "[2]", "value": "16–32 μg mL^–1"}, {"measurement": "IC50 HepG2", "setting": "HepG2", "value": "> 37", "unit": "µg/mL"}, {"measurement": "MIC K. pneumoniae [DSM-30104]", "setting": "K. pneumoniae DSM-30104", "value": 4, "unit": "µg/mL"}, {"measurement": "liver microsomes Clint", "setting": "[3]; human", "value": "< 11.6", "unit": "µL/min/mg"}, {"measurement": "liver microsomes t1/2", "setting": "[3]; human", "value": "> 2", "unit": "h"}, {"measurement": "liver microsomes Clint", "setting": "[3]; mouse C57BL/6", "value": "< 11.6", "unit": "µL/min/mg"}, {"measurement": "liver microsomes t1/2", "setting": "[3]; mouse C57BL/6", "value": "> 2", "unit": "h"}, {"measurement": "metabolism in murine liver microsomes", "setting": "[3]; over 2 h", "value": "not metabolized"}, {"measurement": "liver microsomes Clint", "setting": "[3]; rat (Wistar)", "value": "< 11.6", "unit": "µL/min/mg"}, {"measurement": "liver microsomes t1/2", "setting": "[3]; rat (Wistar)", "value": "> 2", "unit": "h"}, {"measurement": "plasma t1/2", "setting": "mouse CD-1 plasma, 1 μM", "value": ">4", "unit": "h"}, {"measurement": "plasma stability (degradation)", "setting": "over 4 h", "value": "no degradation"}, {"measurement": "MIC P. aeruginosa PA14 DSM 19882", "setting": "[4]", "value": 16, "unit": "μg mL^–1"}, {"measurement": "MIC P. aeruginosa [PA01]", "setting": "P. aeruginosa PA01", "value": 1, "unit": "µg/mL"}, {"measurement": "MIC Pseudomonas aeruginosa PA01 DSM 22644", "setting": "P. aeruginosa PA01", "value": 1, "unit": "μg mL^–1"}, {"measurement": "Kd", "setting": "[5]", "value": "1.4 ± 0.4", "unit": "µM"}, {"measurement": "MIC A. baumannii ATCC 17978", "setting": "A. baumannii ATCC 17978", "value": 16, "unit": "μg mL^–1"}, {"measurement": "MIC A. baumannii DSM-30008", "setting": "A. baumannii DSM-30008", "value": 0.5, "unit": "μg mL^–1"}, {"measurement": "MIC A. baumannii [DSM-30008]", "setting": "A. baumannii DSM-30008", "value": 0.5, "unit": "µg/mL"}, {"measurement": "MIC A. baumannii NCTC 13301", "setting": "A. baumannii NCTC 13301", "value": "8–16 μg mL^–1"}, {"measurement": "MIC Acinetobacter baumannii DSM-30007", "setting": "[6]", "value": 2, "unit": "μg mL^–1"}, {"measurement": "MIC E. coli [ATCC25922]", "setting": "E. coli ATCC25922", "value": 1, "unit": "µg/mL"}, {"measurement": "plasma t1/2", "setting": "[7]", "value": ">4", "unit": "h"}, {"measurement": "plasma t1/2", "setting": "[8]", "value": ">4", "unit": "h"}]}
